Test results published in the supplement of paper PMC10307832.

Tests used:
Assay in all cases: relative viability (nuclei count vs DMSO), 5 days (fraction); higher = more cells survive
EKVX = tested on: EKVX
Method in brief: (§1)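 Lung cancer cell lines, seeded in 1536-well plates, were treated the following day by pin tool with a single drug or with five library-drug doses (not always all listed) in √10 steps on top of a fixed anchor-drug dose. Cells were fixed and nuclei stained in one step after 5 days, and nuclei were counted. Relative viability is the nuclei count for treated wells divided by that for vehicle wells, reported as medians of duplicate plates.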

LCLC-97TM1 = tested on: LCLC-97TM1
Method in brief: as §1

NCI-H1437 = tested on: NCI-H1437
Method in brief: as §1

NCI-H1650 = tested on: NCI-H1650
Method in brief: as §1

NCI-H1666 = tested on: NCI-H1666
Method in brief: as §1

NCI-H1792 = tested on: NCI-H1792
Method in brief: as §1

NCI-H1915 = tested on: NCI-H1915
Method in brief: as §1

NCI-H1975 = tested on: NCI-H1975
Method in brief: as §1

NCI-H23 = tested on: NCI-H23
Method in brief: as §1

NCI-H322M = tested on: NCI-H322M
Method in brief: as §1

NCI-H358 = tested on: NCI-H358
Method in brief: as §1

NCI-H460 = tested on: NCI-H460
Method in brief: as §1

NCI-H520 = tested on: NCI-H520
Method in brief: as §1

NCI-H596 = tested on: NCI-H596
Method in brief: as §1

NCI-H647 = tested on: NCI-H647
Method in brief: as §1

NCI-H661 = tested on: NCI-H661
Method in brief: as §1

NCI-H727 = tested on: NCI-H727
Method in brief: as §1

NCI-H838 = tested on: NCI-H838
Method in brief: as §1

PC-3 [JPC-3] = tested on: PC-3 [JPC-3]
Method in brief: as §1

SK-LU-1 = tested on: SK-LU-1
Method in brief: as §1

Nc1cccc2c1CN(C1CCC(=O)NC1=O)C2=O (stereo unspecified) [Lenalidomide] + CS(=O)(=O)CCNCc1ccc(-c2ccc3ncnc(Nc4ccc(OCc5cccc(F)c5)c(Cl)c4)c3c2)o1 [Lapatinib] (partner 2 µM)
relative viability (EKVX; first compound 0.253 µM): 0.208
relative viability (EKVX; first compound 0.8 µM): 0.173
relative viability (EKVX; first compound 2.53 µM): 0.189
relative viability (EKVX; first compound 8 µM): 0.157
relative viability (LCLC-97TM1; first compound 0.8 µM): 0.602
relative viability (LCLC-97TM1; first compound 2.53 µM): 1.09
relative viability (LCLC-97TM1; first compound 8 µM): 0.623
relative viability (NCI-H1437; first compound 0.253 µM): 0.692
relative viability (NCI-H1437; first compound 0.8 µM): 0.758
relative viability (NCI-H1437; first compound 2.53 µM): 1.11
relative viability (NCI-H1437; first compound 8 µM): 0.914
relative viability (NCI-H1650; first compound 0.253 µM): 0.75
relative viability (NCI-H1650; first compound 0.8 µM): 0.485
relative viability (NCI-H1650; first compound 2.53 µM): 0.835
relative viability (NCI-H1650; first compound 8 µM): 0.731
relative viability (NCI-H1666; first compound 0.253 µM): 0.788
relative viability (NCI-H1666; first compound 0.8 µM): 0.295
relative viability (NCI-H1666; first compound 2.53 µM): 0.847
relative viability (NCI-H1666; first compound 8 µM): 0.513
relative viability (NCI-H1792; first compound 0.253 µM): 0.946
relative viability (NCI-H1792; first compound 0.8 µM): 0.729
relative viability (NCI-H1792; first compound 2.53 µM): 1.03
relative viability (NCI-H1792; first compound 8 µM): 0.666
relative viability (NCI-H1915; first compound 0.253 µM): 0.979
relative viability (NCI-H1915; first compound 0.8 µM): 0.807
relative viability (NCI-H1915; first compound 2.53 µM): 1.11
relative viability (NCI-H1915; first compound 8 µM): 1.02
relative viability (NCI-H1975; first compound 0.253 µM): 0.897
relative viability (NCI-H1975; first compound 0.8 µM): 0.799
relative viability (NCI-H1975; first compound 2.53 µM): 1.07
relative viability (NCI-H1975; first compound 8 µM): 0.909
relative viability (NCI-H23; first compound 0.253 µM): 1.05
relative viability (NCI-H23; first compound 0.8 µM): 1
relative viability (NCI-H23; first compound 2.53 µM): 1.16
relative viability (NCI-H23; first compound 8 µM): 0.781
relative viability (NCI-H322M; first compound 0.253 µM): 0.648
relative viability (NCI-H322M; first compound 0.8 µM): 0.629
relative viability (NCI-H322M; first compound 2.53 µM): 0.592
relative viability (NCI-H322M; first compound 8 µM): 0.635
relative viability (NCI-H358; first compound 0.253 µM): 0.41
relative viability (NCI-H358; first compound 0.8 µM): 0.623
relative viability (NCI-H358; first compound 2.53 µM): 0.51
relative viability (NCI-H358; first compound 8 µM): 0.453
relative viability (NCI-H460; first compound 0.253 µM): 0.981
relative viability (NCI-H460; first compound 0.8 µM): 1.14
relative viability (NCI-H460; first compound 2.53 µM): 1.66
relative viability (NCI-H460; first compound 8 µM): 1.01
relative viability (NCI-H520; first compound 0.253 µM): 0.82
relative viability (NCI-H520; first compound 0.8 µM): 0.929
relative viability (NCI-H520; first compound 2.53 µM): 1.11
relative viability (NCI-H520; first compound 8 µM): 0.637
relative viability (NCI-H596; first compound 0.253 µM): 1.14
relative viability (NCI-H596; first compound 0.8 µM): 0.919
relative viability (NCI-H596; first compound 2.53 µM): 1.1
relative viability (NCI-H596; first compound 8 µM): 0.995
relative viability (NCI-H647; first compound 0.253 µM): 0.995
relative viability (NCI-H647; first compound 0.8 µM): 0.981
relative viability (NCI-H647; first compound 2.53 µM): 1.46
relative viability (NCI-H647; first compound 8 µM): 0.88
relative viability (NCI-H661; first compound 0.253 µM): 0.428
relative viability (NCI-H661; first compound 0.8 µM): 0.501
relative viability (NCI-H661; first compound 2.53 µM): 0.479
relative viability (NCI-H661; first compound 8 µM): 0.495
relative viability (NCI-H727; first compound 0.253 µM): 0.685
relative viability (NCI-H727; first compound 2.53 µM): 1
relative viability (NCI-H727; first compound 8 µM): 0.781
relative viability (NCI-H838; first compound 0.253 µM): 0.807
relative viability (NCI-H838; first compound 0.8 µM): 0.956
relative viability (NCI-H838; first compound 2.53 µM): 1.34
relative viability (NCI-H838; first compound 8 µM): 0.816
relative viability (PC-3 [JPC-3]; first compound 0.253 µM): 0.515
relative viability (PC-3 [JPC-3]; first compound 0.8 µM): 0.377
relative viability (PC-3 [JPC-3]; first compound 2.53 µM): 0.496
relative viability (PC-3 [JPC-3]; first compound 8 µM): 0.389
relative viability (SK-LU-1; first compound 0.253 µM): 0.804
relative viability (SK-LU-1; first compound 0.8 µM): 0.891
relative viability (SK-LU-1; first compound 2.53 µM): 1.11
relative viability (SK-LU-1; first compound 8 µM): 0.889

CN1CCN(CCOc2cc(OC3CCOCC3)c3c(Nc4c(Cl)ccc5c4OCO5)ncnc3c2)CC1 [Saracatinib] + CS(=O)(=O)CCNCc1ccc(-c2ccc3ncnc(Nc4ccc(OCc5cccc(F)c5)c(Cl)c4)c3c2)o1 [Lapatinib] (partner 2 µM)
relative viability (EKVX; first compound 0.02 µM): 0.222
relative viability (EKVX; first compound 0.2 µM): 0.165
relative viability (EKVX; first compound 0.6325 µM): 0.238
relative viability (EKVX; first compound 2 µM): 0.131
relative viability (LCLC-97TM1; first compound 0.02 µM): 1.34
relative viability (LCLC-97TM1; first compound 0.2 µM): 0.771
relative viability (LCLC-97TM1; first compound 0.6325 µM): 0.861
relative viability (LCLC-97TM1; first compound 2 µM): 0.401
relative viability (NCI-H1437; first compound 0.02 µM): 0.884
relative viability (NCI-H1437; first compound 0.2 µM): 0.841
relative viability (NCI-H1437; first compound 0.6325 µM): 0.783
relative viability (NCI-H1437; first compound 2 µM): 0.757
relative viability (NCI-H1650; first compound 0.02 µM): 0.779
relative viability (NCI-H1650; first compound 0.2 µM): 0.803
relative viability (NCI-H1650; first compound 0.6325 µM): 0.573
relative viability (NCI-H1650; first compound 2 µM): 0.47
relative viability (NCI-H1666; first compound 0.02 µM): 0.686
relative viability (NCI-H1666; first compound 0.2 µM): 0.629
relative viability (NCI-H1666; first compound 0.6325 µM): 0.777
relative viability (NCI-H1666; first compound 2 µM): 0.872
relative viability (NCI-H1792; first compound 0.02 µM): 0.968
relative viability (NCI-H1792; first compound 0.2 µM): 0.778
relative viability (NCI-H1792; first compound 0.6325 µM): 1.05
relative viability (NCI-H1792; first compound 2 µM): 0.849
relative viability (NCI-H1915; first compound 0.02 µM): 0.987
relative viability (NCI-H1915; first compound 0.2 µM): 0.917
relative viability (NCI-H1915; first compound 0.6325 µM): 0.955
relative viability (NCI-H1915; first compound 2 µM): 0.819
relative viability (NCI-H1975; first compound 0.02 µM): 1.03
relative viability (NCI-H1975; first compound 0.6325 µM): 0.819
relative viability (NCI-H1975; first compound 2 µM): 0.687
relative viability (NCI-H23; first compound 0.02 µM): 1.13
relative viability (NCI-H23; first compound 0.6325 µM): 1.28
relative viability (NCI-H23; first compound 2 µM): 0.895
relative viability (NCI-H322M; first compound 0.02 µM): 0.639
relative viability (NCI-H322M; first compound 0.2 µM): 0.607
relative viability (NCI-H322M; first compound 0.6325 µM): 0.56
relative viability (NCI-H322M; first compound 2 µM): 0.486
relative viability (NCI-H358; first compound 0.02 µM): 0.471
relative viability (NCI-H358; first compound 0.2 µM): 0.535
relative viability (NCI-H358; first compound 0.6325 µM): 0.418
relative viability (NCI-H358; first compound 2 µM): 0.384
relative viability (NCI-H460; first compound 0.02 µM): 0.886
relative viability (NCI-H460; first compound 0.2 µM): 0.682
relative viability (NCI-H460; first compound 0.6325 µM): 0.799
relative viability (NCI-H460; first compound 2 µM): 1.05
relative viability (NCI-H520; first compound 0.02 µM): 0.853
relative viability (NCI-H520; first compound 0.2 µM): 0.693
relative viability (NCI-H520; first compound 0.6325 µM): 0.708
relative viability (NCI-H520; first compound 2 µM): 0.574
relative viability (NCI-H596; first compound 0.02 µM): 1.02
relative viability (NCI-H596; first compound 0.2 µM): 1.03
relative viability (NCI-H596; first compound 0.6325 µM): 0.994
relative viability (NCI-H596; first compound 2 µM): 0.796
relative viability (NCI-H647; first compound 0.02 µM): 0.76
relative viability (NCI-H647; first compound 0.2 µM): 0.803
relative viability (NCI-H647; first compound 0.6325 µM): 0.894
relative viability (NCI-H647; first compound 2 µM): 0.48
relative viability (NCI-H661; first compound 0.02 µM): 0.456
relative viability (NCI-H661; first compound 0.2 µM): 0.552
relative viability (NCI-H661; first compound 0.6325 µM): 0.633
relative viability (NCI-H661; first compound 2 µM): 0.37
relative viability (NCI-H727; first compound 0.02 µM): 0.688
relative viability (NCI-H727; first compound 0.2 µM): 0.647
relative viability (NCI-H727; first compound 0.6325 µM): 0.78
relative viability (NCI-H727; first compound 2 µM): 0.587
relative viability (NCI-H838; first compound 0.02 µM): 0.979
relative viability (NCI-H838; first compound 0.2 µM): 0.893
relative viability (NCI-H838; first compound 0.6325 µM): 0.842
relative viability (NCI-H838; first compound 2 µM): 0.655
relative viability (PC-3 [JPC-3]; first compound 0.02 µM): 0.439
relative viability (PC-3 [JPC-3]; first compound 0.2 µM): 0.393
relative viability (PC-3 [JPC-3]; first compound 0.6325 µM): 0.43
relative viability (PC-3 [JPC-3]; first compound 2 µM): 0.402
relative viability (SK-LU-1; first compound 0.02 µM): 0.818
relative viability (SK-LU-1; first compound 0.2 µM): 0.572
relative viability (SK-LU-1; first compound 0.6325 µM): 0.45
relative viability (SK-LU-1; first compound 2 µM): 0.406
